# Measurements from article PMC12430278, “A Simple and Reliable Method for the Determination of Isorhapontigenin in Murine Biological Matrices: Application in a Tissue Distribution Study” (Molecules, 2025).
# Experiments:
# [1] = enzymatic-hydrolysis approach; cited from earlier work
# [2] = Stability of stock solutions; format: physicochemical; conditions: DMSO stock solution, stock solution 1.00 mg/mL, n = 6, read-out: Remaining (%, Mean ± SD)
# Method: Stock solutions of ISO and trans-stilbene (internal standard, IS) were prepared in DMSO at a final concentration of 1 mg/mL. These solutions were stored at −20 °C and protected from light. The calibration standard and quality control (QC) samples were prepared by serial dilution of the ISO stock solution with pooled blank murine plasma or respective tissue homogenate.
# The stability of ISO was evaluated under various storage conditions. Stock solution stability was assessed after storage at room temperature (25 °C) and –20 °C. The stability of ISO in plasma was examined under the following conditions: short-term storage (25 °C for 24 h), long-term storage (–80 °C for 52 days), three freeze–thaw cycles, and post-preparative stability (samples kept in an autosampler at 4 °C for more than 24 h). As it is difficult to evaluate ISO stability directly in tissues, only the short-term stability in tissue homogenates was assessed (6 h on ice). Similarly, post-preparative stability in processed tissue samples was assessed using liver homogenate as a representative, due to the complexity of the hepatic matrix. Stability was considered acceptable if 85–115% of the initial ISO concentration remained.
structure (smiles),measurement,setting,value
"COc1cc(/C=C/c2cc(O)cc(O)c2)ccc1O [ISO, trans-3,5,4′-trihydroxy-3′-methoxystilbene]",Glucuronidation,[1],extensive glucuronidation
same,Sulfation,[1],not detected
same,"remaining at 24 h, 1 mg/mL",[2]; stored at room temperature for 24 h,94.6 ± 0.7%
same,"remaining at 480 h, 1 mg/mL",[2]; stored at −20 °C for 20 days,105 ± 1.4%
